{"source": "patent US5439930A", "about": "“Biologically active n-acylprolydipeptides having antiamnestic, antihypoxic and anorexigenic effects” (Russian-American Institute for New Drug Development, priority 1992, dated 1995)", "type_in_all_cases": "in vivo", "key": {"[1]": {"tested_on": "memory decline evoked by maximal electroshock (MES) in randomly bred male albino rats", "assay": "Passive avoidance step-through, amnesia by maximal electroshock (MES)", "details": "for inhibition in vivo at 0.1 mg/kg: Rattus norvegicus, ip, 24 h, read-out: AA % (antiamnestic activity, Butler's modified formula); for inhibition in vivo at 0.1 mg/kg / Latency (sec.) Amnesia + subst. / AA % (antiamnestic activity, Butler's modified formula): 0.1 mg/kg i.p. 15 min before training; for Latency (sec.) Amnesia + subst.: MES after learning, retention 24 h later", "experimental": "(§1) Compounds according to the present invention, including the compounds described in Examples 1-11, were checked for their ability to prevent memory decline evoked by maximal electroshock (MES) or scopolamine in the passive avoidance step-through paradigm (equipment of Laffaette Co., USA). The experiments described herein (Examples 12, 13, 15, and 19) were carried out using randomly bred male albino rats of a weight of approximately 180-220 g. […] Amnesia was produced by transcorneal maximal electroshock immediately after learning or scopolamine (1 mg/kg, subcutaneously) administration 30 min. before learning. The retention was tested 24 hours later by the measurement of latency of the entering of the dark compartment.\n(§2) The degree of antiamnestic activity was estimated according to Buttler's modified formula: [formula]\n(§3) The higher the magnitude of this indicator the more is the antiamnestic activity."}, "[2]": {"tested_on": "memory decline evoked by scopolamine in randomly bred male albino rats", "assay": "Passive avoidance step-through, amnesia by scopolamine", "experimental": "as §1, §2, §3"}, "[3]": {"tested_on": "phenazepam withdrawn male albino rats", "assay": "Threshold of aggressive behavior during phenazepam withdrawal", "details": "immediately after the last administration of phenazepam (2 mg/kg i.p. daily for 57 days)", "experimental": "The influence of Compound I on withdrawal syndrome caused by the interruption of chronic administration of benzodiazepine tranquilizer phenazepam (T. A. Voronina et al., In Fenazepam; A. V. Bogatsky, Ed.; Naukova dumka Publishers: Kiev, 1982; pp. 67-169) was studied in experiments on male albino rats weighing 190-200 g at the beginning and 300-350 g at the end of the experiment.\nPhenazepam (2 mg/kg intraperitoneally) or saline (control group of rats) were given once daily for 57 days. The withdrawal syndrome occurred 24-72 hours after the last injection. The withdrawal syndrome in rats consisted in \"anxiogenic-like\" state aggressiveness and accelerated development of kindled seizures caused by pentylentetrazol. Compound I was administered to the withdrawn rats in doses of 0.5 mg/kg intraperitoneally 15 minutes prior to testing.\nThe threshold of the aggressive behavior was determined in the experiment on the rats (R. Tedeshi et al., J. Pharmacol. Exp. Ther., 125, 28-34 (1959)). The paired rats were placed on the electrified floor; the strength of the current, which provokes the fighting, was registered."}, "[4]": {"tested_on": "undertraining of the passive avoidance reflex, rats", "assay": "Passive avoidance with undertraining, different regimes of administration", "details": "200 mg/kg i.p."}, "[5]": {"assay": "Level of active dose for the described nootropic activities", "details": "above-described nootropic activities", "experimental": "The compounds of the present invention were assessed for their ability to prevent memory impairment induced by maximal electroshock, or scopolamine administration. Unlike N-acylpyrrolidine compounds of the type described by Tanaka et al., supra, the compounds of the present invention are not believed to inhibit prolyl endopeptidase activity. […] The Compound I prevents mental decline, induced by frontal lobectomy (Example 15), prenatal alcoholization or prenatal hypoxia (Example 16) and aging (Example 17).\nIn contrast to this, substances in accordance with the present invention exert their effects in a dose between about 0.1-0.5 mg/kg."}, "[6]": {"details": "0.1 mg/kg 15 min before learning, scopolamine 1 mg/kg s.c."}, "[7]": {"details": "0.1 mg/kg 15 min before learning, scopolamine 1 mg/kg s.c. 30 min before trial"}, "[8]": {"details": "200 mg/kg, scopolamine 1 mg/kg s.c."}}, "note": "Where a SMILES comes first, the peptide text is derived from it. The star is where a group is joined. Isovaleryl = CC(C)CC(=O)*; Hexanoyl = CCCCCC(=O)*; PhAc = O=C(Cc1ccccc1)*; Bz = O=C(c1ccccc1)*", "data": [{"smiles": "CCOC(=O)[C@H](C)NC(=O)[C@@H]1CCCN1C(=O)Cc1ccccc1", "note": "[XX, N-phenylacetyl-L-prolyl-L-alanine ethyl ester] (PhAc-Pro-Ala-OEt)", "values": [{"measurement": "inhibition in vivo at 0.1 mg/kg", "setting": "[1]; MES amnesia", "value": 10.8, "unit": "%"}]}, {"smiles": "NC(=O)C[C@H](NC(=O)[C@@H]1CCCN1C(=O)Cc1ccccc1)C(N)=O", "note": "[VI, N-phenylacetyl-L-prolyl-L-asparagine amide] (PhAc-Pro-Asn-NH2)", "values": [{"measurement": "inhibition in vivo at 0.1 mg/kg", "setting": "[1]; MES amnesia", "value": 26, "unit": "%"}, {"measurement": "Aa (antiamnestic activity)", "setting": "[2]; [6]", "value": -4.3}, {"measurement": "Latency (sec.) Scopolamine + substance", "setting": "[2]; [7]", "value": 46.3, "unit": "s"}]}, {"smiles": "NC(=O)CNC(=O)[C@@H]1CCCN1C(=O)c1ccccc1", "note": "[XIII, N-benzoyl-L-prolylglycine amide] (Bz-Pro-Gly-NH2)", "values": [{"measurement": "inhibition in vivo at 0.1 mg/kg", "setting": "[1]; MES amnesia", "value": -17.6, "unit": "%"}]}, {"smiles": "O=C1CN=C(c2ccccc2Cl)c2cc(Br)ccc2N1", "note": "[Phenazepam, reference compound]", "values": [{"measurement": "Aggression Threshold (mA)", "setting": "[3]", "value": "2.16 ± 0.2", "unit": "mA"}]}, {"smiles": "NC(=O)CCNC(=O)[C@@H]1CCCN1C(=O)c1ccccc1", "note": "[XII, N-benzoyl-L-prolyl-β-alanine amide]", "values": [{"measurement": "inhibition in vivo at 0.1 mg/kg", "setting": "[1]; MES amnesia", "value": 15.2, "unit": "%"}]}, {"smiles": "CCOC(=O)CCNC(=O)[C@@H]1CCCN1C(=O)c1ccccc1", "note": "[XI, N-benzoyl-L-prolyl-β-alanine ethyl ester]", "values": [{"measurement": "inhibition in vivo at 0.1 mg/kg", "setting": "[1]; MES amnesia", "value": 21.9, "unit": "%"}]}, {"smiles": "CC(C)C[C@H](NC(=O)[C@@H]1CCCN1C(=O)Cc1ccccc1)C(N)=O", "note": "[XVII, N-phenylacetyl-L-prolyl-L-leucine amide] (PhAc-Pro-Leu-NH2)", "values": [{"measurement": "inhibition in vivo at 0.1 mg/kg", "setting": "[1]; MES amnesia", "value": 7.9, "unit": "%"}]}, {"smiles": "NC(=O)CNC(=O)[C@@H]1CCCN1C(=O)Cc1ccccc1", "note": "[II, N-phenacetyl-L-prolylglycine amide] (PhAc-Pro-Gly-NH2)", "values": [{"measurement": "Latency (sec.) Amnesia + subst.", "setting": "[1]", "value": 56, "unit": "s"}, {"measurement": "AA % (antiamnestic activity, Butler's modified formula)", "setting": "[1]; MES amnesia", "value": 27, "unit": "%"}, {"measurement": "Aa (antiamnestic activity)", "setting": "[2]; [6]", "value": -9.0}, {"measurement": "Latency (sec.) Scopolamine + substance", "setting": "[2]; [7]", "value": 45.6, "unit": "s"}]}, {"smiles": "COC(=O)CCCNC(=O)[C@@H]1CCCN1C(=O)Cc1ccccc1", "note": "[XIX, N-phenylacetyl-L-prolyl-GABA methylester]", "values": [{"measurement": "Latency (sec.) Amnesia + subst.", "setting": "[1]", "value": 95.8, "unit": "s"}, {"measurement": "AA % (antiamnestic activity, Butler's modified formula)", "setting": "[1]; MES amnesia", "value": 45.4, "unit": "%"}]}, {"smiles": "CCOC(=O)CNC(=O)[C@@H]1CCCN1C(=O)CC(C)C", "note": "[VIII, N-isovaleryl-L-prolylglycine ethyl ester] (Isovaleryl-Pro-Gly-OEt)", "values": [{"measurement": "inhibition in vivo at 0.1 mg/kg", "setting": "[1]; MES amnesia", "value": 28, "unit": "%"}]}, {"smiles": "CN(C)C(=O)CNC(=O)[C@@H]1CCCN1C(=O)Cc1ccccc1", "note": "[XV, N-phenylacetyl-L-prolylglycine dimethylamide] (PhAc-Pro-Gly-NMe2)", "values": [{"measurement": "inhibition in vivo at 0.1 mg/kg", "setting": "[1]; MES amnesia", "value": 23, "unit": "%"}]}, {"smiles": "CCOC(=O)[C@@H](NC(=O)[C@@H]1CCCN1C(=O)Cc1ccccc1)C(C)C", "note": "[IX, N-phenylacetyl-L-prolyl-L-valine ethyl ester] (PhAc-Pro-Val-OEt)", "values": [{"measurement": "inhibition in vivo at 0.1 mg/kg", "setting": "[1]; MES amnesia", "value": 0.0001, "unit": "%"}]}, {"smiles": "NC(=O)CN1CCCC1=O", "note": "[Piracetam, N-carbamido-methyl-pyrrolidone-2, reference compound]", "values": [{"measurement": "AA % (antiamnestic activity)", "setting": "[1]; 200 mg/kg, MES amnesia", "value": 30.5, "unit": "%"}, {"measurement": "Aa (antiamnestic activity)", "setting": "[2]; [8]", "value": 39.3}, {"measurement": "Latency (sec.) Scopolamine + substance", "setting": "[2]; [8]", "value": 64.2, "unit": "s"}, {"measurement": "Mnestic activity (Ma), administration 15 min. before retrieval", "setting": "[4]", "value": -15, "unit": "%"}, {"measurement": "Mnestic activity (Ma), administration 15 min. before trial", "setting": "[4]", "value": 20.0, "unit": "%"}, {"measurement": "Mnestic activity (Ma), administration immediately after trial", "setting": "[4]", "value": 1.0, "unit": "%"}, {"measurement": "Level of active dose", "setting": "[5]", "value": "200 to 800", "unit": "mg/kg"}]}, {"smiles": "CCCCCC(=O)N1CCC[C@H]1C(=O)NCC(=O)OCC", "note": "[XXI, N-caproyl-L-prolylglycine ethyl ester] (Hexanoyl-Pro-Gly-OEt)", "values": [{"measurement": "inhibition in vivo at 0.1 mg/kg", "setting": "[1]; MES amnesia", "value": 20.2, "unit": "%"}]}, {"smiles": "CCOC(=O)CNC(=O)[C@@H]1CCCN1C(=O)c1ccccc1", "note": "[VII, N-benzoyl-L-prolylglycine ethyl ester] (Bz-Pro-Gly-OEt)", "values": [{"measurement": "inhibition in vivo at 0.1 mg/kg", "setting": "[1]; MES amnesia", "value": 37, "unit": "%"}]}, {"smiles": "CCOC(=O)[C@@H](NC(=O)[C@@H]1CCCN1C(=O)c1ccccc1)C(C)C", "note": "[X, N-benzoyl-L-prolyl-L-valine ethyl ester] (Bz-Pro-Val-OEt)", "values": [{"measurement": "inhibition in vivo at 0.1 mg/kg", "setting": "[1]; MES amnesia", "value": 38, "unit": "%"}]}, {"smiles": "CCOC(=O)CNC(=O)[C@@H]1CCCN1CCCCc1ccccc1", "note": "[XXIII, N-phenylbutyl-L-prolyl-glycine ethylester]", "values": [{"measurement": "inhibition in vivo at 0.1 mg/kg", "setting": "[1]; MES amnesia", "value": 12.6, "unit": "%"}]}, {"smiles": "O=C(O)CNC(=O)[C@@H]1CCCN1C(=O)Cc1ccccc1", "note": "[XVIII, N-phenylacetyl-L-prolylglycine] (PhAc-Pro-Gly-OH)", "values": [{"measurement": "inhibition in vivo at 0.1 mg/kg", "setting": "[1]; MES amnesia", "value": 9.8, "unit": "%"}]}, {"smiles": "CNC(=O)CNC(=O)[C@@H]1CCCN1C(=O)Cc1ccccc1", "note": "[XIV, N-phenylacetyl-L-prolylglycine N-methylamide] (PhAc-Pro-Gly-NHMe)", "values": [{"measurement": "inhibition in vivo at 0.1 mg/kg", "setting": "[1]; MES amnesia", "value": -7.6, "unit": "%"}]}, {"smiles": "NC(=O)CCNC(=O)[C@@H]1CCCN1C(=O)Cc1ccccc1", "note": "[IV, N-phenylacetyl-L-prolyl-β-alanine amide]", "values": [{"measurement": "inhibition in vivo at 0.1 mg/kg", "setting": "[1]; MES amnesia", "value": 52, "unit": "%"}, {"measurement": "Aa (antiamnestic activity)", "setting": "[2]; [6]", "value": 52.1}, {"measurement": "Latency (sec.) Scopolamine + substance", "setting": "[2]; [7]", "value": 94.9, "unit": "s"}]}, {"smiles": "CCOC(=O)CCNC(=O)[C@@H]1CCCN1C(=O)Cc1ccccc1", "note": "[III, N-phenacetyl-L-prolyl-β-alanine ethyl ester]", "values": [{"measurement": "Latency (sec.) Amnesia + subst.", "setting": "[1]", "value": 56, "unit": "s"}, {"measurement": "AA % (antiamnestic activity, Butler's modified formula)", "setting": "[1]; MES amnesia", "value": 29, "unit": "%"}, {"measurement": "Aa (antiamnestic activity)", "setting": "[2]; [6]", "value": 23.7}, {"measurement": "Latency (sec.) Scopolamine + substance", "setting": "[2]; [7]", "value": 78.6, "unit": "s"}]}, {"smiles": "CCOC(=O)CC[C@H](NC(=O)[C@@H]1CCCN1C(=O)Cc1ccccc1)C(=O)OCC", "note": "[XVI, N-phenylacetyl-L-prolyl-L-glutamic acid diethyl ester] (PhAc-Pro-Glu(OEt)-OEt)", "values": [{"measurement": "inhibition in vivo at 0.1 mg/kg", "setting": "[1]; MES amnesia", "value": 58.3, "unit": "%"}]}, {"smiles": "CCOC(=O)C[C@H](NC(=O)[C@@H]1CCCN1C(=O)Cc1ccccc1)C(=O)OCC", "note": "[V, N-phenylacetyl-L-prolyl-L-aspartic acid diethyl ester] (PhAc-Pro-Asp(OEt)-OEt)", "values": [{"measurement": "inhibition in vivo at 0.1 mg/kg", "setting": "[1]; MES amnesia", "value": 29.5, "unit": "%"}, {"measurement": "Aa (antiamnestic activity)", "setting": "[2]; [6]", "value": -10}, {"measurement": "Latency (sec.) Scopolamine + substance", "setting": "[2]; [7]", "value": 48.1, "unit": "s"}]}]}
